Measured values taken from patent US4963569A, “L-654,040, antibacterial agent” (Merck & Co., Inc., priority 1989, dated 1990).
Entries after “also recorded” stand apart in the source; their conditions may differ.

What was measured:
[1] = system: Bordetella bronchiseptica (3771); assay: In vivo efficacy in infected mice
Staph. aureus 2865 = assay: Agar dilution MIC, antagonist-free medium (Table II); conditions: Staphylococcus aureus 2865, agar dilution
[2] = system: Pasteurella multocida (4678); assay: Combined therapy with erythromycin in infected mice; conditions: L-654,040 combined with erythromycin, intraperitoneal
[3] = system: Pasteurella multocida (4678); assay: In vivo efficacy in infected mice
Solubility in water = format: physicochemical; conditions: solutions in water for dosing
E. coli DC2 4353 = assay: Agar dilution MIC, antagonist-free medium (Table II); conditions: E. coli permeability mutant
[4] = 160 mg/kg×2 intraperitoneal, 0 and 6 hours after infection

C[C@H](CNC(=O)[C@H]1N=C(c2cccc(O)c2O)O[C@@H]1C)C(=O)N[C@@H]1CCCN(O)C1=O [L-654,040, 2-(2,3-dihydroxyphenyl)-4,5-dihydro-N-[3-[(1-hydroxy-2-oxo-3(R)-piperidinyl)amino]-2(R)-methyl-3-oxopropyl]-5R-methyl-4S-oxazolecarboxamide]
survival time [1, 4]: prolongation of survival time was observed
survival time (summary) ([1]; intraperitoneal): did prolong the survival time
sensitivity of strain (Staph. aureus 2865): sensitive
effectiveness of combined therapy vs erythromycin alone [2]: slightly more effective than erythromycin alone
synergism with erythromycin [2]: not to a degree considered to be synergistic
statistical significance of prolongation of survival ([3]; 160 mg/kg×2 intraperitoneal): statistically significant (0.025<p<0.05)
survival time [3, 4]: prolongation of survival time was observed
survival time (summary) ([3]; intraperitoneal): did prolong the survival time; also recorded: increases survival time
statistical significance of prolonged survival (summary) ([3]; intraperitoneal, two Pasteurella tests): statistically significant at one level in two Pasteurella tests
solubility (in words) (Solubility in water): limited solubility
sensitivity of strain (E. coli DC2 4353; agar dilution): sensitive
relative activity, acetyl derivative vs parent compound (E. coli DC2 4353; from MIC): equal activity
